Where a name gives a salt, the structure may show the parent alone.
Q: For `O=C(N[C@H]1CCN(CCCCc2ccccc2)C1)C12CC3CC(CC(C3)C1)C2` [Example 17, (S)-N-(1-(4-phenylbutyl)pyrrolidin-3-yl)-1-adamantanecarboxamide], which melting point is on record?
A: The melting point was 82 to 84 °C.

Q: With `O=C(N[C@H]1CCN(CCc2ccc(F)cc2)C1)C(C1CCCCC1)C1CCCCC1` [Example 26, (S)-N-(1-(2-(4-fluorophenyl)ethyl)pyrrolidin-3-yl)dicyclohexylacetamide] as the molecule, how does the melting point read?
A: Its melting point is 122 to 124 °C.

Q: With `O=C(N[C@H]1CCN(CCc2ccc(F)cc2)C1)N(C1CCCCC1)C1CCCCC1` [Example 48, (S)-1,1-dicyclohexyl-3-(1-(2-(4-fluorophenyl)ethyl)pyrrolidin-3-yl)urea] as the molecule, how does the melting point read?
A: The melting point was 97 to 98 °C.

Q: Which melting point does the source give for `O=C(N[C@H]1CCN(CCc2ccc(F)cc2)C1)C(c1ccccc1F)c1ccccc1F` [Example 74, (S)-2,2-bis(2-fluorophenyl)-N-(1-(2-(4-fluorophenyl)ethyl)pyrrolidin-3-yl)acetamide] here?
A: The melting point was 107 to 108 °C.

Q: For `CN(C(=O)C12CC3CC(CC(C3)C1)C2)[C@H]1CCN(CCc2cccc(F)c2)C1` (as salt: hydrochloride) (hydrate or solvate) [Example 65, (S)-N-methyl-N-(1-(2-(3-fluorophenyl)ethyl)pyrrolidin-3-yl)-1-adamantanecarboxamide], which melting point is on record?
A: Its melting point is 252 to 253 °C.

Q: With `O=C(N[C@H]1CCN(CCc2cccc(F)c2)C1)C12CC3CC(CC(C3)C1)C2` [Example 9, (S)-N-(1-(2-(3-fluorophenyl)ethyl)pyrrolidin-3-yl)-1-adamantanecarboxamide] as the molecule, how does the melting point read?
A: The melting point was 87 to 89 °C.

Q: For `O=C(N[C@H]1CCN(CCCc2ccccc2)C1)C12CC3CC(CC(C3)C1)C2` [Example 14, (S)-N-(1-(3-phenylpropyl)pyrrolidin-3-yl)-1-adamantanecarboxamide], which melting point is on record?
A: Its melting point is 118 to 120 °C.

Q: Which melting point does the source give for `O=C(N[C@H]1CCN(CC2Cc3ccccc3C2)C1)C12CC3CC(CC(C3)C1)C2` (as salt: hydrochloride) (hydrate or solvate) [Example 18, (S)-N-(1-((2,3-dihydroinden-2-yl)methyl)pyrrolidin-3-yl)-1-adamantanecarboxamide] here?
A: Its melting point is 241 to 243 °C.

Q: With `O=C(N[C@H]1CCN(CCc2ccccc2)C1)C(c1ccccc1)c1ccccc1` (as salt: oxalate) [Example 23, (S)-N-(1-(2-phenylethyl)pyrrolidin-3-yl)diphenylacetamide] as the molecule, how does the melting point read?
A: The melting point was 191 to 192 °C.

Q: For `O=C(N[C@H]1CCN(Cc2ccccc2)C1)C12CC3CC(CC(C3)C1)C2` [Example 13, (S)-N-(1-benzylpyrrolidin-3-yl)-1-adamantanecarboxamide], which melting point is on record?
A: Its melting point is 130 to 132 °C.

Q: For `O=C(Cc1ccccc1C1CCCC1)N[C@H]1CCN(CCc2ccccc2)C1` [Example 27, N-((S)-1-(2-phenylethyl)pyrrolidin-3-yl)-2-cyclopentylphenylacetamide], which melting point is on record?
A: Its melting point is 117 to 119 °C.

Q: Which melting point does the source give for `O=C(N[C@H]1CCN(CCc2ccc(Cl)cc2)C1)C12CC3CC(CC(C3)C1)C2` [Example 3, (S)-N-(1-(2-(4-chlorophenyl)ethyl)pyrrolidin-3-yl)-1-adamantanecarboxamide] here?
A: The melting point was 94 to 95 °C.

Q: For `O=C(N[C@H]1CCN(CCc2ccccc2F)C1)C12CC3CC(CC(C3)C1)C2` [Example 10, (S)-N-(1-(2-(2-fluorophenyl)ethyl)pyrrolidin-3-yl)-1-adamantanecarboxamide], which melting point is on record?
A: The melting point was 106 to 108 °C.

Q: With `O=C(N[C@H]1CCN(C2Cc3ccccc3C2)C1)C12CC3CC(CC(C3)C1)C2` (as salt: hydrochloride) (hydrate or solvate) [Example 22, (S)-N-(1-(2,3-dihydroinden-2-yl)pyrrolidin-3-yl)-1-adamantanecarboxamide] as the molecule, how does the melting point read?
A: The melting point was 278 to 279 °C.

Q: Which melting point does the source give for `O=C(N[C@H]1CCN(C[C@H](O)c2ccccc2)C1)C12CC3CC(CC(C3)C1)C2` (as salt: hydrochloride) (hydrate or solvate) [Example 70, (S)-N-(1-((R)-2-hydroxy-2-phenylethyl)pyrrolidin-3-yl)-1-adamantanecarboxamide] here?
A: Its melting point is 139 to 141 °C.

Q: Which melting point does the source give for `O=C(N[C@H]1CCN(CCc2ccc(F)cc2)C1)C1=c2ccccc2=CC=C2CC=CC=C21` [Example 36, (S)-N-(1-(2-(4-fluorophenyl)ethyl)pyrrolidin-3-yl)dibenzo[a,d]cycloheptene-5-carboxamide] here?
A: Its melting point is 127 to 128 °C.

Q: For `O=C(N[C@H]1CCN(CCc2ccc(F)cc2)C1)C(c1ccccc1)c1ccccc1` (as salt: oxalate) (hydrate or solvate) [Example 24, (S)-N-(1-(2-(4-fluorophenyl)ethyl)pyrrolidin-3-yl)diphenylacetamide], which melting point is on record?
A: The melting point was 156 to 158 °C.

Q: For `COc1ccc(CCN2CC[C@H](NC(=O)C34CC5CC(CC(C5)C3)C4)C2)cc1` [Example 4, (S)-N-(1-(2-(4-methoxyphenyl)ethyl)pyrrolidin-3-yl)-1-adamantanecarboxamide], which melting point is on record?
A: The melting point was 81 to 83 °C.

Q: For `N#Cc1ccc(CCN2CC[C@H](NC(=O)C34CC5CC(CC(C5)C3)C4)C2)cc1` [Example 6, (S)-N-(1-(2-(4-cyanophenyl)ethyl)pyrrolidin-3-yl)-1-adamantanecarboxamide], which melting point is on record?
A: The melting point was 104 to 105 °C.

Q: For `O=C(N[C@H]1CCN(CCc2ccccc2)C1)C12CC3CC(CC(C3)C1)C2` [Example 1, (S)-N-(1-(2-phenylethyl)pyrrolidin-3-yl)-1-adamantanecarboxamide], which melting point is on record?
A: The melting point was 119 to 121 °C.

Q: With `O=C(N[C@H]1CCN(CCc2ccc(C(F)(F)F)cc2)C1)C12CC3CC(CC(C3)C1)C2` (as salt: hydrochloride) (hydrate or solvate) [Example 5, (S)-N-(1-(2-(4-trifluoromethylphenyl)ethyl)pyrrolidin-3-yl)-1-adamantanecarboxamide] as the molecule, how does the melting point read?
A: Its melting point is 214 to 215 °C.

Q: For `O=C(N[C@H]1CCN(CCc2ccccc2)C1)NC12CC3CC(CC(C3)C1)C2` (as salt: hydrochloride) (hydrate or solvate) [Example 51, (S)-1-(1-adamantyl)-3-(1-(2-phenylethyl)pyrrolidin-3-yl)urea], which melting point is on record?
A: The melting point was 201 to 202 °C.

Q: For `Cc1ccccc1C(C(=O)N[C@H]1CCN(CCc2ccc(F)cc2)C1)c1ccccc1C` [Example 75, (S)-2,2-bis(2-methylphenyl)-N-(1-(2-(4-fluorophenyl)ethyl)pyrrolidin-3-yl)acetamide], which melting point is on record?
A: Its melting point is 108 to 110 °C.

Q: Which melting point does the source give for `O=C(N[C@H]1CCN(CCCc2ccc(F)cc2)C1)C12CC3CC(CC(C3)C1)C2` [Example 15, (S)-N-(1-(3-(4-fluorophenyl)propyl)pyrrolidin-3-yl)-1-adamantanecarboxamide] here?
A: The melting point was 114 to 115 °C.

Q: Which melting point does the source give for `CN(C(=O)C12CC3CC(CC(C3)C1)C2)[C@H]1CCN(CCc2ccc(F)cc2)C1` (as salt: hydrochloride) (hydrate or solvate) [Example 56, (S)-N-methyl-N-(1-(2-(4-fluorophenyl)ethyl)pyrrolidin-3-yl)-1-adamantanecarboxamide] here?
A: The melting point was 253 to 254 °C.

Q: With `O=C(N[C@H]1CCN(CC2CCCc3ccccc32)C1)C12CC3CC(CC(C3)C1)C2` (stereo partly drawn) (as salt: hydrochloride) (hydrate or solvate) [Example 20, (S)-N-(1-((1,2,3,4-tetrahydronaphthalen-1-yl)methyl)pyrrolidin-3-yl)-1-adamantanecarboxamide] as the molecule, how does the melting point read?
A: Its melting point is 140 to 142 °C.

Q: Which melting point does the source give for `CN(C(=O)C12CC3CC(CC(C3)C1)C2)[C@H]1CCN(CCc2ccccc2F)C1` (as salt: hydrochloride) [Example 66, (S)-N-methyl-N-(1-(2-(2-fluorophenyl)ethyl)pyrrolidin-3-yl)-1-adamantanecarboxamide] here?
A: Its melting point is 241 to 242 °C.

Q: Which melting point does the source give for `CN(C(=O)C12CC3CC(CC(C3)C1)C2)[C@@H]1CCN(CCc2ccc(F)cc2)C1` (as salt: hydrochloride) (hydrate or solvate) [Example 68, (R)-N-methyl-N-(1-(2-(4-fluorophenyl)ethyl)pyrrolidin-3-yl)-1-adamantanecarboxamide] here?
A: The melting point was 264 to 265 °C.

Q: Which melting point does the source give for `O=C(N[C@H]1CCN(CCc2ccc(F)cc2)C1)C(c1cccs1)c1cccs1` [Example 73, (S)-2,2-di(2-thienyl)-N-(1-(2-(4-fluorophenyl)ethyl)pyrrolidin-3-yl)acetamide] here?
A: The melting point was 96 to 98 °C.

Q: Which melting point does the source give for `O=C(N[C@H]1CCN(C[C@@H](O)c2ccccc2)C1)C12CC3CC(CC(C3)C1)C2` (as salt: hydrochloride) (hydrate or solvate) [Example 71, (S)-N-(1-((S)-2-hydroxy-2-phenylethyl)pyrrolidin-3-yl)-1-adamantanecarboxamide] here?
A: The melting point was 149 to 151 °C.

Q: With `O=C(N[C@H]1CCN(CCc2ccc(F)cc2)C1)n1c2ccccc2c2ccccc21` [Example 72, (S)-N-(1-(2-(4-fluorophenyl)ethyl)pyrrolidin-3-yl)carbazole-9-carboxamide] as the molecule, how does the melting point read?
A: The melting point was 107 to 108 °C.

Q: Which melting point does the source give for `O=C(N[C@H]1CCN(CCc2ccccc2C(F)(F)F)C1)C12CC3CC(CC(C3)C1)C2` (as salt: hydrochloride) (hydrate or solvate) [Example 12, (S)-N-(1-(2-(2-trifluoromethylphenyl)ethyl)pyrrolidin-3-yl)-1-adamantanecarboxamide] here?
A: Its melting point is 127 to 128 °C.

Q: Which melting point does the source give for `O=C(N[C@@H]1CCN(CCc2ccccc2)C1)C12CC3CC(CC(C3)C1)C2` [Example 63, (R)-N-(1-(2-phenylethyl)pyrrolidin-3-yl)-1-adamantanecarboxamide] here?
A: The melting point was 118 to 120 °C.

Q: For `O=C(N[C@H]1CCN(CCCc2ccc(Cl)cc2)C1)C12CC3CC(CC(C3)C1)C2` [Example 16, (S)-N-(1-(3-(4-chlorophenyl)propyl)pyrrolidin-3-yl)-1-adamantanecarboxamide], which melting point is on record?
A: The melting point was 117 to 119 °C.

Q: For `O=C(N[C@H]1CCN(CCc2cccc(C(F)(F)F)c2)C1)C12CC3CC(CC(C3)C1)C2` (as salt: hydrochloride) (hydrate or solvate) [Example 11, (S)-N-(1-(2-(3-trifluoromethylphenyl)ethyl)pyrrolidin-3-yl)-1-adamantanecarboxamide], which melting point is on record?
A: The melting point was 160 to 163 °C.

Q: Which melting point does the source give for `O=C(NC1CCN(CCc2ccc(F)cc2)C1)N1CC2CC3CC1C[C@@H](C3)C2` (stereo partly drawn) (as salt: hydrochloride) (hydrate or solvate) [Example 69, (S)-N-(1-(2-(4-fluorophenyl)ethyl)pyrrolidin-3-yl)-(4-azatricyclo[4.3.1.1(3,8)]undecan-4-yl)carboxamide] here?
A: Its melting point is 110 to 113 °C (dec.).
